Measurements as given in US7294643B2, “UK-1 analogues: methods of preparation and use” (Board of Regents, The University of Texas System, priority 2002, dated 2007).

Legend:
[1] = alamarBlue cytotoxicity, range over four cell lines; type: cell-based; conditions: human
Method: Cytotoxicity Assays. Cell culture cytotoxicity assays were performed using the. alamarBlue method, as described by Ahmed et al., J. Immun. Methods 1994, 170, 211-224, which is incorporated herein by reference. Briefly, aliquots of 100 μL of cell suspension (1.0-2.5×10^3 cells) was placed in 96-well microtiter plates in an atmosphere of 5% CO2 at 37° C. After 24 hours, 100 μL of culture medium and 2 μL of compound in vehicle (culture media with 40% pyridine) or vehicle alone were added, and the plates incubated an additional 72 hours. […] After the culture media had been removed from each well, 200 μL of fresh media and 20 μL of 90% alamarBlue reagent were added, followed by an additional 6 h incubation. The fluorescent intensity was measured using a Spectrafluor Plus plate reader with excitation at 530 nm and emission at 590 nm.

[2] = test system: methicillin-resistant S. aureus ATCC 43300; assay: Antimicrobial bioassay, methicillin-resistant S. aureus; type: cell-based, Staphylococcus aureus
Method: Antimicrobial Bioassay: Staphylococcus aureus ATCC 29213 and methicillin-resistant S. aureus ATCC 43300 (MRS) were obtained from the American Type Culture Collection (Rockville, Md.) and stored on agar slants at 4° C. until needed. Susceptibility testing was performed using a modified version of the NCCLS methods: “Methods for Dilution Antimicrobial Susceptibility Tests for Bacteria that Grow Aerobically,” M7-A4, Vol. 17, No. 2, NCCLS, (1997) and “Reference Method for Broth Dilution Antifungal Susceptibility Testing of Yeasts; Approved Standard,” M27-A, Vol. 17, No. 9, NCCLS, (1997), both of which are incorporated herein by reference. Microorganisms were subcultured prior to the assay by suspending cells from the slant in Eugon broth (BBL, Maryland) and incubating for 24 hours at 37° C. Inocula were prepared by diluting the subcultured organism in its incubation broth after comparison to the 0.5 McFarland Standard (a BaSO4 suspension) to afford final inocula ranges of S. aureus: 1.0-5.0×10^5 and MRS: 0.2-6.0×10^5 CFU/ml. Test compounds were dissolved in DMSO, serially-diluted using normal saline, and transferred in duplicate to 96 well flat-bottomed microtiter plates. The microbial inocula were added to the samples to achieve a final volume of 200 μl and final compound concentrations starting with 50 μg/ml. Drug [Ciprofloxacin (ICN Biomedicals, Ohio)] as well as growth and blank (media only) controls were added to each test plate. Plates were read at 630 nm using the EL-340 Biokinetics Reader (Bio-Tek Instruments, Vermont) prior to and after incubation at 37° C. for 24 hours. Percent growth was calculated and plotted versus concentration to afford the IC50, or sample concentration that affords 50% growth of the organism relative to controls.

COC(=O)c1cccc2oc(-c3cccc4oc(-c5ccccc5O)nc34)nc12 [UK-1]
IC50 at 72 h [1]: 0.32 to 65 µM
IC50 ([2]; Staphylococcus aureus, ATCC43300, Methacilline-resistant Staph. Aureus, growth inhibited by 50%, read-out: Staph. aureus IC50): > 50 µg/mL
antibacterial effect ([2]; methicillin-resistant S. aureus, concentrations up to 50 μg/mL): no indication of any antibacterial effect
